The text below walks through data of article PMC4303146, “Investigation of cyanine dyes for in vivo optical imaging of altered mitochondrial membrane potential in tumors” (Cancer Medicine, 2014).

On the set-up of data set [1]: method as in PMID 21469142. Conditions: cited from earlier work.
Data set [2] can be described thus: Photophysical properties (fluorescence spectroscopy, quantum yield). The class given is physicochemical. Here is the method:
IC7-1 derivatives were dissolved in chloroform or 5% FBS to give a concentration of 1 μmol/L for fluorescence spectroscopy analysis. Excitation spectra were measured following the emission at 850 nm, and emission spectra were measured following excitation at 823 nm. Quantum yields were determined using a Fluorolog-3 spectrofluorometer equipped with an integrating sphere.

In data set [3] the test system is HeLa cells. The data set is described as follows: Cellular localization study (fluorescence microscopy with NAO mitochondria marker). The note with it: 1 μmol/L, 60 min, NAO 100 nmol/L. It counts as cell-based, human. Here is the method: HeLa cells (3 × 10^5 cells) were cultured in a poly-L-lysine coated glass bottom dish for 24 h at 37°C before use. Cells were washed twice with phosphate-buffered saline (PBS) and then incubated with the IC7-1 derivative dissolved in dimethyl sulfoxide (DMSO) (1 μmol/L final concentration) in DMEM supplemented with 5% FBS and 1% penicillin and streptomycin for 60 min. To determine the dye localization, mitochondria were labeled with NAO (100 nmol/L final concentration) for 20 min before completion of the incubation with IC7-1 derivative. Next, the cells were washed twice each with DMEM and PBS. Cells were viewed with a fluorescence microscope under a 100× oil-immersion objective lens. MetaMorph® software (Molecular Devices, LLC, Sunnyvale, CA) was used for imaging analysis.

Data set [4] deals with HeLa cells. The data set is described as follows: Cellular uptake study with uncoupler CCCP. The class given is cell-based, human. Conditions: dye 1 μmol/L, 60 min, CCCP 0-25 μmol/L. The method, then:
A cellular uptake study was conducted as reported previously. Briefly, the buffer solution (pH 7.4) for the cellular uptake study was composed of NaCl ([…]), KCl (5.4 mmol/L), CaCl2 (1.2 mmol/L), MgSO4 (0.8 mmol/L), NaH2PO4 (0.8 mmol/L), dextrose (5.6 mmol/L), and 4-(2-hydroxyethyl)-1-piperazineethanesulfonic acid) (5 mmol/L). HeLa cells (1 × 10^6 cells/mL buffer solution) were incubated with carbonyl […] m-chlorophenylhydrazone (CCCP; 0, 0.1, 0.25, 0.5, 0.75, 1, 2.5, 5, 10, and 25 μmol/L) for 5 min at 37°C in 1.5 mL microtubes, followed by the addition of the IC7-1 derivative (1 μmol/L final concentration). After a 60-min incubation with the IC7-1 derivative, the cells were washed twice and resuspended with buffer solution. The fluorescence intensity was measured following the excitation at 823 nm and the emission from 840 to 900 nm, and the normalized intensity (%) was calculated as a percentage of fluorescence intensity obtained with CCCP untreated (0 μmol/L) cells.
The buffer solution (pH 7.4) for the cellular uptake study was composed of NaCl (145 mM), KCl (5.4 mM), CaCl2 (1.2 mM), MgSO4 (0.8 mM), NaH2PO4 (0.8 mM), dextrose (5.6 mM), and HEPES (5 mM). The HeLa cells (1 x 10^6 cells / ml buffer solution) were incubated with an uncoupler (CCCP; 0, 0.1, 0.25, 0.5, 0.75, 1, 2.5, 5, 10, and 25 µM) for 5 min at 37 °C in 1.5 mL microtubes, followed by the addition of IR-780 or IC7-1-Bu (1 µM final concentration) After a 60 min incubation with the dyes, the cells were washed twice and resuspended with buffer solution. Fluorescence intensity was measured following the excitation at 763 nm and the emission from 780 to 880 nm for IR-780, and the excitation at 823 nm and the emission from 840 to 900 nm for IC7-1-Bu. The normalized intensity (%) was calculated as a percentage of fluorescence intensity obtained with CCCP untreated (0 µM) cells.

Data set [5] addresses T1, albumin-binding site I (warfarin-binding site) (Bos taurus, UniProt P02769).
T1 construct: incubated for 30 min in PBS (pH 7.4) containing 5% DMSO and 5% FBS; from tissue; host or cells: fetal bovine serum (5% in PBS)
The data set is described as follows: Protein-binding assay with competitive inhibitors in 5% FBS. Conditions: for Normalized fluorescence intensity with warfarin (albumin site I inhibitor): 5% FBS, inhibitor 189 μmol/L, dye 1 μmol/L. The class given is in vitro ADME, bovine. Here is the method:
A protein-binding assay was conducted as reported previously. Briefly, warfarin, ibuprofen, digoxin, and quinidine were used as competitive inhibitors of albumin-binding sites I, II, III, and […], respectively. The inhibitors (0 and 189 μmol/L) were incubated for 30 min in PBS (pH 7.4) containing 5% DMSO and 5% FBS at room temperature. Immediately after the addition of the IC7-1 derivative (1 μmol/L final concentration), the fluorescence intensity was measured following the excitation at 823 nm and the emission from 840 to 900 nm. The normalized intensity (%) was calculated as a percentage of fluorescence intensity obtained from an inhibitor untreated sample.

The target in another data set is BSA (Bos taurus, UniProt P02769). Nature of the data set: Association constants of IC7-1 derivatives to albumin (fluorimetric titration). The note with it: dye 1 µM, BSA 0-1.0 µM, 30 min; read-out: Ka, association constant of dye-albumin complex (converted). It counts as binding, bovine. Here is the method: Binding studies of IC7-1 derivatives to albumin were conducted as reported previously (Beckford G et al. The solvatochromic effects of side chain substitution on the binding interaction of novel tricarbocyanine dyes with human serum albumin. Talanta 2012;92: 45-52). Briefly, IC7-1 derivatives (1 µM final concentration) were incubated with BSA (0, 0.4, 0.6, 0.8, and 1.0 µM) for 30 min to equilibrate. The fluorescence intensity was measured following the excitation at 823 nm and the emission from 840 to 900 nm. The interaction between dye D and albumin A can be expressed by Eq. 1:
The association constant for the dye-albumin complex formation can be expressed by Eq. 2:
Then, the association constant Ka of the dye-albumin complex was calculated from the data for the fluorimetric titration of the dye with albumin using Eq. 3:
1/ΔF = 1/k[D] + (1/(k[D]Ka))·(1/[A]) (3)
where k is a constant depending on the instrumentation and quantum efficiency of the process.
Therefore, a plot of the reciprocal of ΔF versus the reciprocal of albumin concentration gives a straight line. The association constant was calculated by dividing the intercept by the slope of the line.

For data set [6], the system named is HeLa cell xenograft. Nature of the data set: In vivo imaging study in HeLa cell xenograft mice. Here is the method: Animal experiments were conducted in accordance with institutional guidelines and were approved by the Kyoto University Animal Care Committee. […] HeLa cells (2 × 10^6 cells in 100 μL of PBS) were subcutaneously inoculated into the right hind legs of mice. Fourteen days after implantation, mice were used for the imaging study.
Clairvivo® OPT measurement and display software ver. 2.6.0.0. (SHIMADZU Co.) was used for imaging analysis.
Exposure time was 5s for the scan at 3 h, and 3s for the other scans. Clairvivo® OPT measurement and display software ver. 2.6.0.0. (SHIMADZU Co., Kyoto, Japan) was used for imaging analysis.

The test system of data set [7] is HeLa cell xenograft. The data set is described as follows: In vivo blocking study with protein-binding inhibitor warfarin. Details: species or system mice. Here is the method:
(§1) Animal experiments were conducted in accordance with institutional guidelines and were approved by the Kyoto University Animal Care Committee. Female nude mice (BALB/c nu/nu 4-weeks old), supplied by Japan SLC, Inc. (Shizuoka, Japan), were housed under a 12 h light/12 h dark cycle and were given free access to food (D10001) and water. HeLa cells (2 × 10^6 cells in 100 μL of PBS) were subcutaneously inoculated into the right hind legs of mice. Fourteen days after implantation, mice were used for the imaging study.
An in vivo blocking study using a protein-binding inhibitor was conducted as reported previously. Briefly, IC7-1-Bu (10 nmol, 100 μL) and warfarin (5.5 μmol, 100 μL) were simultaneously administered to mice via the tail vein, and the mice were imaged using the same method as described above.

Data set [8] concerns HeLa cell xenograft. Nature of the data set: In vivo blocking study with uncoupler CCCP. Also noted: species or system mice. Conditions: intratumoral CCCP 0.25 mg/kg, imaged 1 and 3 h. The method, then:
as §1
In the in vivo blocking study using an uncoupler, IC7-1-Bu (10 nmol, 100 μL) was administered to tumor-bearing mice via the tail vein immediately after intratumoral injection of CCCP (2.5 mL/kg, 0.25 mg/kg). Mice were imaged 1 and 3 h after administration of the imaging agent using the same method as described above.

T1 sequence (P02769 25-607): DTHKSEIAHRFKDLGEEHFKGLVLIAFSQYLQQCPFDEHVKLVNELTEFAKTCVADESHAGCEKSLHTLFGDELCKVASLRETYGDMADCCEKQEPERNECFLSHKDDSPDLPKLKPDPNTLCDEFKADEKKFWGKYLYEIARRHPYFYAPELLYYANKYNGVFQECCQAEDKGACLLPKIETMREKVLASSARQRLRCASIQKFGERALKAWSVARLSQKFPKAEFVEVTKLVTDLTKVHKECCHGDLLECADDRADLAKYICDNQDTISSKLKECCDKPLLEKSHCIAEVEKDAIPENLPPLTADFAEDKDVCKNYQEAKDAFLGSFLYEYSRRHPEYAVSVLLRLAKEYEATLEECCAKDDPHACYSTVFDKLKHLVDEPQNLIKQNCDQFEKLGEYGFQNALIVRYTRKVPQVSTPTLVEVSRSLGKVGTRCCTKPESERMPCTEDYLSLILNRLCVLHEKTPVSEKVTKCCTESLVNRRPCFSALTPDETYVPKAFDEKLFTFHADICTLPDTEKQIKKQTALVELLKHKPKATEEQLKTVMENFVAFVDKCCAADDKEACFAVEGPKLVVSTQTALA
BSA, sequence (P02769 25-607): as above

In the case of `CC1(C)C(/C=C/C=C/C=C/C=C2\N(CCCCS(=O)(=O)O)c3ccc4ccccc4c3C2(C)C)=[N+](CCCCS(=O)(=O)[O-])c2ccc3ccccc3c21` [ICG, indocyanine green], the “Clearance and tumor accumulation after i.v. administration” value in [1] is “rapid clearance through the liver into feces with low accumulation in tumors”.
Regarding `CCCCCN1/C(=C/C=C2\CCCC(/C=C/C3=[N+](CCCCC)c4ccc5ccccc5c4C3(C)C)=C2Cl)C(C)(C)c2c1ccc1ccccc21` [IC7-1-Pe, 3-Pentyl-2-(2-{3-[2-(3-pentyl-1,1-dimethyl-1,3-dihydro-benz[e]indol-2-ylidene)-ethylidene]-2-chloro-cyclohex-1-enyl}-vinyl)-1,1-dimethyl-1H-benz[e]indolium], in [2] (5% FBS), the “Φ, quantum yield” value is recorded as 0.03 and the “ε, extinction coefficient” value is 90000 mol/L/cm. For the same compound, in [2] (5% FBS, 1 μmol/L), the “emmax, maximum emission wavelength” value was 847 nm and the “exmax, maximum excitation wavelength” value is reported as 823 nm. Besides, in data set [2] (CHCl3), the “Φ, quantum yield” value is listed as 0.06 and the “ε, extinction coefficient” value turned out to be 330000 mol/L/cm. Besides, in data set [2] (CHCl3, 1 μmol/L), the “emmax, maximum emission wavelength” value was 845 nm and the “exmax, maximum excitation wavelength” value came out at 823 nm. In the data set with HeLa cells [3], the “Subcellular localization of NIR fluorescence” value is recorded as “weak or negligible fluorescence in the NIR region”. The “Normalized cellular fluorescence intensity under CCCP treatment” value in the data set with HeLa cells [4] is on record as “reduced cellular fluorescence from treatment with a low CCCP concentration”. The “Normalized fluorescence intensity with warfarin (albumin site I inhibitor)” value in [5] is reported as “specifically bound to albumin”. The Kd on BSA was 625 nM. Also, the “Tumor fluorescence intensity group from ROI analysis” value in the data set with HeLa cell xenograft [6] (10 nmol i.v.) was “mild intensity group”. In the data set with HeLa cell xenograft [6] (10 nmol i.v., 24, 48 and 72 h), the “Tumor depiction in fluorescence images” value is on record as “Tumors were clearly depicted”.
Take `CCCCN1/C(=C/C=C2\CCCC(/C=C/C3=[N+](CCCC)c4ccc5ccccc5c4C3(C)C)=C2Cl)C(C)(C)c2c1ccc1ccccc21` [IC7-1-Bu, 3-Butyl-2-(2-{3-[2-(3-butyl-1,1-dimethyl-1,3-dihydro-benz[e]indol-2-ylidene)-ethylidene]-2-chloro-cyclohex-1-enyl}-vinyl)-1,1-dimethyl-1H-benz[e]indolium]: the “Φ, quantum yield” value in data set [2] (5% FBS) turned out to be 0.04; in [2] (CHCl3), 0.06. Also, the “ε, extinction coefficient” value in [2] (5% FBS) was 130000 mol/L/cm; in [2] (CHCl3), 330000 mol/L/cm. The “emmax, maximum emission wavelength” value in data set [2] (5% FBS, 1 μmol/L) came out at 849 nm; in [2] (CHCl3, 1 μmol/L) it was 845 nm. The “exmax, maximum excitation wavelength” value in data set [2] (5% FBS, 1 μmol/L) is on record as 823 nm; in data set [2] (CHCl3, 1 μmol/L), 823 nm. The “Subcellular localization of NIR fluorescence” value with HeLa cells [3] is on record as “colocalized fluorescence with NAO”. Also, in the data set with HeLa cells [4], the “Normalized cellular fluorescence intensity under CCCP treatment” value was “reduced cellular fluorescence from treatment with a low CCCP concentration”. Further, the “Absorbance peak and fluorescence in 5% FBS versus 0% FBS solution” value in [5] (5% FBS vs 0% FBS) was “significantly higher in 5% FBS solution than in 0% FBS solution”. The “Normalized fluorescence intensity with warfarin (albumin site I inhibitor)” value in data set [5] is reported as “specifically bound to albumin”. In addition, in data set [5] (FBS solution), the Absorbance peak is on record as 836 nm. For the same compound, the Kd on BSA was 476 nM. For the same compound, the “Retention of tumor fluorescence after i.v. administration” value in the data set with HeLa cell xenograft [6] (10 nmol i.v.) is 72 h. Besides, the “Tumor fluorescence intensity group from ROI analysis” value in the data set with HeLa cell xenograft [6] (10 nmol i.v.) is listed as “high intensity group”. Further, the “Fluorescence intensity at the tumor region” value with HeLa cell xenograft [6] (10 nmol i.v., 24, 48 and 72 h) is “strong fluorescence intensity at the tumor region up to 72 h”. For the same compound, the “Tumor depiction in fluorescence images” value in the data set with HeLa cell xenograft [6] (10 nmol i.v., 24, 48 and 72 h) was “Tumors were clearly depicted”. Further, the “Fluorescence intensity after co-administration of warfarin” value in the data set with HeLa cell xenograft [7] (IC7-1-Bu 10 nmol + warfarin 5.5 μmol i.v., 24-72 h) is given as “diminished throughout the body”. The “Tumor to neck fluorescence ratio” value with HeLa cell xenograft [7] (warfarin (+), after 1 day) is recorded as 2.36 ± 0.09; in the data set with HeLa cell xenograft [7] (warfarin (+), after 2 day), 2.49 ± 0.10; in the data set on HeLa cell xenograft [7] (warfarin (+), after 3 day), 2.46 ± 0.09; in the data set on HeLa cell xenograft [7] (warfarin (−), after 1 day), 1.94 ± 0.11; in the data set on HeLa cell xenograft [7] (warfarin (−), after 2 day) it was 2.02 ± 0.15; in the data set with HeLa cell xenograft [7] (warfarin (−), after 3 day), 2.07 ± 0.48. For the same compound, the “Fluorescence intensity at the tumor after CCCP pretreatment” value in the data set on HeLa cell xenograft [8] is “significantly decreased by CCCP pretreatment”.
